Where two headings read alike, the source gives them in different places.
Assays:
[1] = Ex-vivo simulated dialysis treatment (CRRT mimic) of bovine plasma containing creatinine; type: in vitro ADME; details: for Reduction in creatinine on the arterial side / Reduction in creatinine on the venous side / Total amount of creatinine in effluent, of total amount in the reservoir at time zero: at 60 minutes; for Change in creatinine concentration, venous vs. arterial side, mean over timepoints: the values are: percent change venous vs arterial; for C0 at 0 min: bovine, prior to starting ex-vivo dialysis, read-out: Starting creatinine concentration at time zero
Source text: FIG. 1 illustrates an exemplary system 100 and configuration for a simulated treatment on a drug or analyte of interest. The exemplary system 100 of FIG. 1 was designed and built to mimic Continuous Renal Replacement Therapy (CRRT). CRRT is a method of slower, continuous dialysis to allow solute and fluid homeostasis. CRRT […] intermittent hemodialysis and peritoneal dialysis. It is typically performed through pump-driven venovenous extracorporeal circuits and acts as renal support through blood purification to allow solute and fluid homeostasis. CRRT is often chosen for renal replacement in hemodynamically unstable patients, and it is often employed in the intensive care unit. With a slower rate of fluid removal, CRRT theoretically causes less hypotension than other dialysis techniques. Another advantage of CRRT for these patients is that they often require a large volume of fluid administration, including medications and parenteral nutrition, and CRRT can prevent an overloaded state.
The blood or plasma is introduced to the blood side 156 of the filter. Dialysate fluid that has no drug (nor analyte of interest) is pumped through the other side 157 of the filter. This process creates a movement of the analyte of interest from the blood side 156 of the filter to the dialysate side 157 and ultimately excretion into an effluent container 107 (simulating drug removal). The pumps 110, 111, 112, 113 are set at typical clinical levels (e.g., 300-500 mL/min) for pump speed and are optimized based on performance criteria (and by trial and error) for the specific treatment simulation.
In some embodiments, the system 100 is run for 1 hour, and during this time samples (500 μL each) are taken at the respective sample points 103, 104, 105, 106 at time 0, 10, 20, 30, 40 and 60 minutes after starting the pumps 110, 111, 112, 113. These samples are assayed for the analyte of interest. These are the numerical treatment simulation results that are used in silico (described below) to scale and to predict human dialysis situations (i.e., create a virtual patient) and also to extend the predictions to many other dialysis settings (e.g., different filter types, flow rates, type of fluids pumped in, etc.) that are used in different clinical conditions.
As shown in an exemplary algorithm and schematic of the invention in FIGS. 3A-3C, the treatment simulation and in-silico modeling, simulations, and extrapolation are used to determine the effects of dialysis on a drug or analyte of interest. In blocks A and B of FIG. 3A, bovine or human plasma or blood is spiked with a drug or an exogenous analyte existing in plasma or blood. In block C, pumps, tubing, flow rates, filters, temperature, pH, dialysis or replacement solutions and apparatus are configured to mimic a type of CRRT (Continuous Renal Replacement Therapy) or IHD (Intermittent Hemodialysis). In block D, the system is run for approximately 1-2 hours. In block E, multiple samples from different ports 103, 104, 105, 106 (arterial, venous, effluent, and blood/plasma reservoir) are taken during the treatment simulation and the sampling information is recorded. In block F, the samples for the drug/analyte collected are assayed. In block G, the amount of the drug that is removed by the treatment simulation is determined, and rate and ratio parameters for the drug removal from plasma or blood are calculated.
One analyte was creatinine used as control, and the other was drug X (a drug under development). The Cybernetic Dialysis™ system 200 measures how much of drug X and how much creatinine is removed by dialysis and (referring back to FIG. 1) includes water bath 101 with shaking tray with thermal control set at 37° C. […]

[2] = as above; type: in vitro ADME; details: HF1400 membrane; 5 min after start of ex-vivo dialysis
[3] = AN69 M150 membrane, 10 min after start of ex-vivo dialysis
[4] = AN69 M150 membrane, 20 min after start of ex-vivo dialysis
[5] = AN69 M150 membrane, 30 min after start of ex-vivo dialysis
[6] = AN69 M150 membrane, 40 min after start of ex-vivo dialysis
[7] = AN69 M150 membrane, 60 min after start of ex-vivo dialysis
[8] = HF1400 membrane, 10 min after start of ex-vivo dialysis
[9] = HF1400 membrane, 20 min after start of ex-vivo dialysis
[10] = HF1400 membrane, 30 min after start of ex-vivo dialysis
[11] = HF1400 membrane, 40 min after start of ex-vivo dialysis
[12] = HF1400 membrane, 60 min after start of ex-vivo dialysis

CN1CC(=O)NC1=N [creatinine]
Creatinine concentration, Arterial [1, 3]: 7.088 µg/mL | Creatinine concentration, Venous [1, 3]: 5.545 µg/mL | Creatinine concentration, Arterial [1, 4]: 6.53 µg/mL | Creatinine concentration, Venous [1, 4]: 5.216 µg/mL | Creatinine concentration, Arterial [1, 5]: 5.191 µg/mL | Creatinine concentration, Venous [1, 5]: 4.353 µg/mL | Creatinine concentration, Arterial [1, 6]: 4.145 µg/mL | Creatinine concentration, Venous [1, 6]: 3.706 µg/mL | Creatinine concentration, Arterial [1, 7]: 3.444 µg/mL | Creatinine concentration, Venous [1, 7]: 2.909 µg/mL | Reduction in creatinine on the arterial side ([1]; AN69 M150 membrane): 60% | Creatinine concentration, Arterial ([1]; AN69 M150 membrane, time point 0 min, bovine plasma): 8.581 µg/mL | Creatinine concentration, Arterial [1, 8]: 8.306 µg/mL | Creatinine concentration, Venous [1, 8]: 6.355 µg/mL | Creatinine concentration, Arterial [1, 9]: 6.174 µg/mL | Creatinine concentration, Venous [1, 9]: 5.052 µg/mL | Creatinine concentration, Arterial [1, 10]: 5.857 µg/mL | Creatinine concentration, Venous [1, 10]: 4.214 µg/mL | Creatinine concentration, Arterial [1, 11]: 5.261 µg/mL | Creatinine concentration, Venous [1, 11]: 3.782 µg/mL | Creatinine concentration, Arterial [1, 12]: 3.82 µg/mL | Creatinine concentration, Venous [1, 12]: 3.18 µg/mL | Change in creatinine concentration, venous vs. arterial side, mean over timepoints ([1]; HF1400 membrane, FIG. 7): -25.4% | Reduction in creatinine on the arterial side ([1]; HF1400 membrane): 56% | Reduction in creatinine on the venous side ([1]; HF1400 membrane): 63% | Total amount of creatinine in effluent, of total amount in the reservoir at time zero ([1]; HF1400 membrane): 66.3% | Creatinine concentration, Arterial ([1]; HF1400 membrane, time point 0 min, bovine plasma): 8.581 µg/mL | Change in creatinine concentration, venous vs. arterial side, mean over timepoints ([1]; M150 AN69 membrane, FIG. 5): -16.8% | Reduction in creatinine on the venous side ([1]; M150 AN69 membrane): 66% | Total amount of creatinine in effluent, of total amount in the reservoir at time zero ([1]; M150 AN69 membrane): 68.0% | Total amount of creatinine (at time zero) remaining in the membrane cartridge and associated tubing ([1]; both membrane types (M150 AN69 and HF1400)): about 5% | C0 at 0 min ([1]; AN69 M150 membrane): 8370 ng/mL | C0 at 0 min ([1]; HF1400 membrane): 8580 ng/mL | Creatinine concentration, Arterial [2]: 8.675 µg/mL | Creatinine concentration, Venous [2]: 5.41 µg/mL
